Patent US7879876B2, “Sulfonamide derivatives and use thereof for the modulation of metalloproteinases” (Merck Serono SA, priority 2005, dated 2011)

Tests used:
Format in all cases: biochemical
[1] = molecular target: MMP-14 (Homo sapiens, UniProt P50281); test: MMP-14 enzyme inhibition assay (coumarin-labelled peptide substrate); conditions: read-out: percentage inhibition MMP14
Procedure, shortened: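 Recombinant human enzyme, APMA-activated if necessary, was incubated with McaPLGLDpaAR substrate and compound (10 concentrations in duplicate, 100 μM to 5.1 nM) in Tris-HCl pH 7.6 with NaCl, CaCl2 and Brij 35 for 2 h at 37 °C. Fluorescence was read at 320/405 nm, and IC50 was taken from a four-parameter fit.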

[2] = molecular target: T1, collagenase (MMP-1) (Homo sapiens, UniProt P03956); test: MMP-1 enzyme inhibition assay (coumarin-labelled peptide substrate); conditions: @ 5 μM; read-out: percentage inhibition MMP1
T1 sequence (P03956 100-469): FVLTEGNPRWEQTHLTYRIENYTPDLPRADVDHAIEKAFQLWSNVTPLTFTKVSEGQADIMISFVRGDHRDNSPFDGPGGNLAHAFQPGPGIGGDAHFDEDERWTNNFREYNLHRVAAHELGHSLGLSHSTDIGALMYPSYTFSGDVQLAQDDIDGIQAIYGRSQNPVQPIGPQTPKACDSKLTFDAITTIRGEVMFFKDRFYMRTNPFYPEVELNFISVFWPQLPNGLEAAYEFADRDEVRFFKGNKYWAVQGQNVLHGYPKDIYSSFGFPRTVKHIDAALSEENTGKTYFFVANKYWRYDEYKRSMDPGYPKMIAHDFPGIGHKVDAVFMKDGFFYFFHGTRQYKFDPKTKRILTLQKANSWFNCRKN
Procedure, shortened: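 Recombinant human MMP-1, APMA-activated if needed, in Tris-HCl pH 7.6 with NaCl, CaCl2 and 0.05% Brij 35; McaPLGLDpaAR substrate added as 8 μM solution, 2 h at 37 °C. Fluorescence (320/405 nm) read without stopping; IC50 from 10 duplicate concentrations (100 μM–5.1 nM) by four-parameter fit.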

[3] = molecular target: T2, gelatinase A (MMP-2) (Homo sapiens, UniProt P08253); test: MMP-2 enzyme inhibition assay (coumarin-labelled peptide substrate); conditions: read-out: IC50 MMP2
T2 sequence (P08253 110-660): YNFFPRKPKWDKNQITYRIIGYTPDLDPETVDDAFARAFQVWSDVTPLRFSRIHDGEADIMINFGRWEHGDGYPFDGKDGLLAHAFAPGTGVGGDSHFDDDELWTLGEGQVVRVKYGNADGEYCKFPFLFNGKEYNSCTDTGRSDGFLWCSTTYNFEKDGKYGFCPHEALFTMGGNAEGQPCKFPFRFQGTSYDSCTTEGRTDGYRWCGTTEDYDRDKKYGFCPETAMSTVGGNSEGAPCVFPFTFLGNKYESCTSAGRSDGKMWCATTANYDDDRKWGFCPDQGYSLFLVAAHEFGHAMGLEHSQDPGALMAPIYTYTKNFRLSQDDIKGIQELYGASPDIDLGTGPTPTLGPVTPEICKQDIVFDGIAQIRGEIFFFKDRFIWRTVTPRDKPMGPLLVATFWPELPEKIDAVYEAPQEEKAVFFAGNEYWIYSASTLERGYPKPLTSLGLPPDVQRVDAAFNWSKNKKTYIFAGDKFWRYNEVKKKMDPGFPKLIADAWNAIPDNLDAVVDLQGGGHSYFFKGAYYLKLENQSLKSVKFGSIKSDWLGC
Procedure, shortened: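 Recombinant human MMP-2, APMA-activated if necessary, run as for the MMP-9 protocol: McaPLGLDpaAR substrate (8 μM working dilution) in 100 mM Tris-HCl pH 7.6, 100 mM NaCl, 10 mM CaCl2, 0.05% Brij 35; ten 3-fold concentrations (100 μM–5.1 nM) in duplicate, 2 h at 37° C. Fluorescence ex 320/em 405 nm, unstopped; IC50 from four-parameter fit.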

O=CN(O)C(CS(=O)(=O)N1CCc2cc(C(F)(F)F)ccc2C1)C1CCCC1 (stereo not shown) [Example 25, N-(1-cyclopentyl-2-{[6-(trifluoromethyl)-3,4-dihydro-isoquinolin-2(1H)-yl]sulfonyl}ethyl)-N-hydroxyformamide]
inhibition at 0.1 µM ([1]; @ 0.1 μM): 0% | inhibition at 5 µM ([1]; @ 5 μM): 73% | inhibition at 5 µM [2]: 37% | IC50 [3]: 78 nM
